The record followed here is patent US11820773B2, “Tricyclic compounds” (ALIGOS THERAPEUTICS, INC., priority 2020, dated 2023).

Each structure is given as a SMILES string. Bounds are passed on as bounds.

In one test the test system is HBV. The experiment in a line: HBV-DNA antiviral assay using HepG2.117 cells (intracellular HBV DNA by qPCR). It counts as cell-based, genotype D HBV. The following applies: HBV DNA inhibition, 3 days incubation, 2% DMSO. In short, it runs like this: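 HepG2.117 cells (stable genotype D HBV, Tet-off) seeded without doxycycline, treated next day with 9-point 4-fold dilutions in 2% DMSO for 3 days at 37° C. Intracellular HBV DNA quantified by qPCR against a standard curve; viability by CellTiter-Glo ATP. EC50, EC90, CC50 from variable-slope dose-response fits versus DMSO control.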
`CNC(=O)c1ccc(-n2c(=O)c3c(n4ncc(CC5CCCC5)c24)CN(C(=O)c2ccc(Br)c(Cl)c2)CC3)cc1` [Compound 11, 4-[12-(4-bromo-3-chloro-benzoyl)-5-(cyclopentylmethyl)-8-oxo-2,3,7,12-tetrazatricyclo[7.4.0.0^2,6]trideca-1(9),3,5-trien-7-yl]-N-methyl-benzamide] displayed an EC50 of less than 50 nM.
Still for that read-out and setting: the figure for `CC(C)Cc1cnn2c3c(c(=O)n(-c4ccc(-c5nncn5C)cc4)c12)C[C@H](C)N(C(=O)c1ccc(Br)c(Cl)c1)C3` [Compound 60b, (11S)-12-(4-bromo-3-chlorobenzoyl)-11-methyl-7-[4-(4-methyl-1,2,4-triazol-3-yl)phenyl]-5-(2-methylpropyl)-2,3,7,12-tetraazatricyclo[7.4.0.0^{2,6}]trideca-1(9),3,5-trien-8-one] is 50 to 500 nM; for `Cn1nnc(-c2ccc(-n3c(=O)c4c(n5ncc(Cc6ccccc6)c35)CN(C(=O)c3ccc(Br)c(Cl)c3)CC4)cc2)n1` [Compound 10, 5-benzyl-12-(4-bromo-3-chloro-benzoyl)-7-[4-(2-methyltetrazol-5-yl)phenyl]-2,3,7,12-tetrazatricyclo[7.4.0.0^2,6]trideca-1(9),3,5-trien-8-one] it is less than 50 nM.

Still in this test, the particulars now being: Hepatitis B virus, 72 h, HBV DNA inhibition, 3 days incubation, 2% DMSO.
Regarding `CNC(=O)c1cnc(-n2c(=O)c3c(n4ncc(CC(C)C)c24)CN(C(=O)c2ccc(Br)c(C(F)(F)F)c2)[C@H](C)C3)cn1` (stereo in doubt) [Compound 89a, N-methyl-5-[rac-(11R)-12-[4-bromo-3-(trifluoromethyl)benzoyl]-5-isobutyl-11-methyl-8-oxo-2,3,7,12-tetrazatricyclo[7.4.0.0^2,6]trideca-1(9),3,5-trien-7-yl]pyrazine-2-carboxamide], the EC50 was less than 50 nM.
On the same count and under the same terms, with `C[C@@H]1Cc2c(n3ncc(Cc4ccccc4)c3n(-c3ccc(-c4ncnn4C)cc3)c2=O)CN1C(=O)c1ccc(Br)c(C(F)(F)F)c1` (stereo in doubt) [Compound 49a, rac-(11R)-5-benzyl-12-[4-bromo-3-(trifluoromethyl)benzoyl]-11-methyl-7-[4-(2-methyl-1,2,4-triazol-3-yl)phenyl]-2,3,7,12-tetrazatricyclo[7.4.0.0^2,6]trideca-1(9),3,5-trien-8-one] the figure was less than 50 nM; with `CNc1n[nH]c2cc(-n3c(=O)c4c(n5ncc(Cc6ccccc6)c35)CN(C(=O)c3ccc(Br)c(C(F)(F)F)c3)[C@@H](C)C4)ccc12` (stereo in doubt) [Compound 43b, rac-(11S)-5-benzyl-12-[4-bromo-3-(trifluoromethyl)benzoyl]-11-methyl-7-[3-(methylamino)-1H-indazol-6-yl]-2,3,7,12-tetrazatricyclo[7.4.0.0^2,6]trideca-1(9),3,5-trien-8-one], less than 50 nM; with `COP(=O)(O)OCN(C)C(=O)c1ccc(-n2c(=O)c3c(n4ncc(CC5CC5)c24)CN(C(=O)c2ccc(Br)c(C(F)(F)F)c2)[C@@H](C)C3)cc1` (racemic) [Compound 107, Methyl [methyl-[4-[rac-(11S)-12-[4-bromo-3-(trifluoromethyl)benzoyl]-5-(cyclopropylmethyl)-11-methyl-8-oxo-2,3,7,12-tetrazatricyclo[7.4.0.0^2,6]trideca-1(9),3,5-trien-7-yl]benzoyl]amino]methyl Hydrogen Phosphate], more than 5000 nM.
The same measure, in the same setting: with `C[C@@H]1Cc2c(n3ncc(Cc4ccccc4)c3n(-c3ccc(-c4cnnn4C)cc3)c2=O)CN1C(=O)c1ccc(Br)c(C(F)(F)F)c1` (stereo in doubt) [Compound 105a, rac-(11R)-5-benzyl-12-[4-bromo-3-(trifluoromethyl)benzoyl]-11-methyl-7-[4-(3-methyltriazol-4-yl)phenyl]-2,3,7,12-tetrazatricyclo[7.4.0.0^2,6]trideca-1(9),3,5-trien-8-one] the figure was less than 50 nM.
In turn, `Cc1ncnn1-c1ccc(-n2c(=O)c3c(n4ncc(Cc5ccccc5)c24)CN(C(=O)c2ccc(Br)c(C(F)(F)F)c2)CC3)cc1` [Compound 36, 5-benzyl-12-[4-bromo-3-(trifluoromethyl)benzoyl]-7-[4-(5-methyl-1,2,4-triazol-1-yl)phenyl]-2,3,7,12-tetrazatricyclo[7.4.0.0^2,6]trideca-1(9),3,5-trien-8-one] showed an EC50 of less than 50 nM.
Still for that read-out and setting: the figure for `CC(C)Cc1cnn2c3c(c(=O)n(-c4ccc5c(c4)nnn5CCO)c12)C[C@H](C)N(C(=O)c1ccc(Br)c(C(F)(F)F)c1)C3` (stereo in doubt) [Compound 108b, rac-(11S)-12-[4-bromo-3-(trifluoromethyl)benzoyl]-7-[1-(2-hydroxyethyl)benzotriazol-5-yl]-5-isobutyl-11-methyl-2,3,7,12-tetrazatricyclo[7.4.0.0^2,6]trideca-1(9),3,5-trien-8-one] is 50 to 500 nM; for `CNC(=O)c1ccc(-n2c(=O)c3c(n4ncc(Cc5ccsc5)c24)CN(C(=O)c2ccc(Br)c(C(F)(F)F)c2)CC3)cc1` [Compound 20, 4-[12-[4-bromo-3-(trifluoromethyl)benzoyl]-8-oxo-5-(3-thienylmethyl)-2,3,7,12-tetrazatricyclo[7.4.0.0^2,6]trideca-1(9),3,5-trien-7-yl]-N-methyl-benzamide] it is less than 50 nM; for `CNC(=O)c1ccc(-n2c(=O)c3c(n4ncc(CC5CCC5)c24)CN(C(=O)c2ccc(Br)c(Cl)c2)CC3)cc1` [Compound 14, 4-[12-(4-bromo-3-chloro-benzoyl)-5-(cyclobutylmethyl)-8-oxo-2,3,7,12-tetrazatricyclo[7.4.0.0^2,6]trideca-1(9),3,5-trien-7-yl]-N-methyl-benzamide] it is less than 50 nM.
The same measure, in the same setting: the figure for `CNc1n[nH]c2cc(-n3c(=O)c4c(n5ncc(CC(C)C)c35)CN(C(=O)c3ccc(Br)c(Cl)c3)[C@@H](C)C4)ccc12` (stereo in doubt) [Compound 57b, rac-(11S)-12-(4-bromo-3-chloro-benzoyl)-5-isobutyl-11-methyl-7-[3-(methylamino)-1H-indazol-6-yl]-2,3,7,12-tetrazatricyclo[7.4.0.0^2,6]trideca-1(9),3,5-trien-8-one] is 50 to 500 nM; for `C[C@H]1Cc2c(n3ncc(Cc4ccccc4)c3n(-c3ccc(-c4noc(=O)n4C)cc3)c2=O)CN1C(=O)c1ccc(Br)c(C(F)(F)F)c1` (stereo in doubt) [Compound 41b, 4-methyl-3-[4-[rac-(11S)-5-benzyl-12-[4-bromo-3-(trifluoromethyl)benzoyl]-11-methyl-8-oxo-2,3,7,12-tetrazatricyclo[7.4.0.0^2,6]trideca-1(9),3,5-trien-7-yl]phenyl]-1,2,4-oxadiazol-5-one] it is 50 to 500 nM.
As for `Cc1cnn(-c2ccc(-n3c(=O)c4c(n5ncc(Cc6ccccc6)c35)CN(C(=O)c3ccc(Br)c(C(F)(F)F)c3)[C@@H](C)C4)cc2)n1` (stereo in doubt) [Compound 79b, rac-(11S)-5-benzyl-12-[4-bromo-3-(trifluoromethyl)benzoyl]-11-methyl-7-[4-(4-methyltriazol-2-yl)phenyl]-2,3,7,12-tetrazatricyclo[7.4.0.0^2,6]trideca-1(9),3,5-trien-8-one], the concentration for a half-maximal effect (EC50) was in the range of 50 to 500 nM.
With `Cc1nn[nH]c1-c1ccc(-n2c(=O)c3c(n4ncc(CC(C)C)c24)CN(C(=O)c2ccc(Br)c(Cl)c2)[C@@H](C)C3)cc1` (stereo in doubt) [Compound 64b, rac-(11S)-12-(4-bromo-3-chloro-benzoyl)-5-isobutyl-11-methyl-7-[4-(4-methyl-1H-triazol-5-yl)phenyl]-2,3,7,12-tetrazatricyclo[7.4.0.0^2,6]trideca-1(9),3,5-trien-8-one], the EC50 fell in the range of 50 to 500 nM.
Take `Cc1cnnn1-c1ccc(-n2c(=O)c3c(n4ncc(Cc5ccccc5)c24)CN(C(=O)c2ccc(Br)c(C(F)(F)F)c2)CC3)cc1` [Compound 34, 5-benzyl-12-[4-bromo-3-(trifluoromethyl)benzoyl]-7-[4-(5-methyltriazol-1-yl)phenyl]-2,3,7,12-tetrazatricyclo[7.4.0.0^2,6]trideca-1(9),3,5-trien-8-one]: the EC50 was less than 50 nM.
`CC[C@H]1Cc2c(n3ncc(Cc4ccccc4)c3n(-c3ccc4c(NC)n[nH]c4c3)c2=O)CN1C(=O)c1ccc(Br)c(C(F)(F)F)c1` (stereo in doubt) [Compound 84b, rac-(11S)-5-benzyl-12-[4-bromo-3-(trifluoromethyl)benzoyl]-11-ethyl-7-[3-(methylamino)-1H-indazol-6-yl]-2,3,7,12-tetrazatricyclo[7.4.0.0^2,6]trideca-1(9),3,5-trien-8-one] showed a concentration giving a half-maximal response (EC50) of less than 50 nM.
Compound `CNC(=O)c1ccc(-n2c(=O)c3c(n4ncc(Cc5ccccc5)c24)CN(C(=O)c2ccc(Br)c(C(F)(F)F)c2)[C@H](C)C3)nc1` (stereo in doubt) [Compound 109a, N-methyl-6-[rac-(11R)-5-benzyl-12-[4-bromo-3-(trifluoromethyl)benzoyl]-11-methyl-8-oxo-2,3,7,12-tetrazatricyclo[7.4.0.0^2,6]trideca-1(9),3,5-trien-7-yl]pyridine-3-carboxamide] yielded a half-maximal effective concentration (EC50) of 50 to 500 nM.
`CC(C)Cc1cnn2c3c(c(=O)n(-c4ccc(-c5nncn5C)cc4)c12)C[C@H](C)N(C(=O)c1ccc(Br)c(Cl)c1)C3` (stereo in doubt) [Compound 68b, rac-(11S)-12-(4-bromo-3-chloro-benzoyl)-5-isobutyl-11-methyl-7-[4-(4-methyl-1,2,4-triazol-3-yl)phenyl]-2,3,7,12-tetrazatricyclo[7.4.0.0^2,6]trideca-1(9),3,5-trien-8-one] displayed an EC50 of 50 to 500 nM.
`CNc1nnc2cc(-n3c(=O)c4c(n5ncc(Cc6ccccc6)c35)CN(C(=O)c3ccc(Br)c(Cl)c3)CC4)ccn12` [Compound 23, 5-benzyl-12-(4-bromo-3-chloro-benzoyl)-7-[3-(methylamino)-[1,2,4]triazolo[4,3-a]pyridin-7-yl]-2,3,7,12-tetrazatricyclo[7.4.0.0^2,6]trideca-1(9),3,5-trien-8-one] returned an EC50 of less than 50 nM.

The term EC50 denotes the midpoint of the concentration-response curve. Low values mean an effect from little substance, high ones a need for much substance.
